Laboratory results published in patent US4220795A, “Cyclobutyl substituted derivatives of prostaglandin analogs” (Miles Laboratories, Inc., priority 1978, dated 1980).
“Also recorded” adds a separate entry of the source.

Columns and labels:
[1] = tested on: human platelet aggregation (collagen-induced, platelet rich plasma); conditions: compared with compounds of Formula III; cited from earlier work
[2] = tested on: smooth muscle of the vas deferens; conditions: mammalian male reproductive system; cited from earlier work
[3] = tested on: female reproductive system; conditions: cited from earlier work
gastric secretion = assay: Effects on Gastric Secretion in the Rat (Test B); assay type: in vivo; conditions: pylorus ligated, s.c. 2 x 1.5 mg/kg, 4 hr
Excerpt: B. Evaluation of the Effects of Prostaglandin Analogs III on Gastric Secretion in the Rat
A procedure based on that described by Lipmann (J. Pharm. Pharmacol., 21:335 [1968]) was used to assess the influence of test compounds on gastric secretion. Rats of one sex weighing 150 to 200 g were randomly divided into groups of six animals each and fasted for 48 hr previous to the experiments, water being available ad limitum. The animals were anesthetized with ether, the abdomen was opened through a midline incision and the pylorus was ligated. Test compounds were diluted from stock solution so as to administer a dose of 1.5 mg/kg in a volume equivalent to 1 ml/kg. Subcutaneous injections were applied immediately after surgery and again 2 hr later, so that a total dose of 3.0 mg/kg was administered. Dilutions were made with phosphate buffer (pH 7.38) as recommended by Lee et al. (Prostaglandins 3:29 [1973]), in order to insure adequate stability of drugs at the subcutaneous depot. Each compound was tested in one group of rats; an additional control group received only the vehicle.
Four hr after pyloric ligation the animals were killed with ether, the cardias ligated and the stomachs removed. The volume of gastric secretion was measured and the contents centrifuged at 5000 rpm for 10 min. Total acid in the supernatant was titrated against a 0.1 N sodium hydroxide solution and the amount expressed in mEq.
Volume and total acid values of the treated group were compared with those of the controls by the "T" test. Anti-secretory activity was scored according to the following scale: […]

rat uterus = assay: Effects on the Rat Uterus (Test F); conditions: rat uterus segments, 0.001 to 10.0 mcg/ml, 29° C.
Protocol: F. Evaluation of the Effects of Prostaglandin Analogs III on the Rat Uterus
The uterine stimulant effect of test compounds is determined in segments of uterus obtained from rats (140-160 g) pretreated subcutaneously with 1 mg/kg of diethylstibesterol 18 hr before the experiment. The tissues are placed in 10 ml chambers filled with de-Jalon solution at 29° C. and bubbled with 95% O2 and 5% CO2, and prepared for isometric recording with force displacement transducers. Preparations are stretched to an initial tension of 1 g and are left undisturbed for 30 min, after which two responses to 1 mcg/ml of carbachol added to the bath at a 10 min interval, are obtained (the value of the second response is recorded). Responses to increasing concentrations of the test compound (0.001 to 10.0 mcg/ml with one log intervals) are then recorded every 10 min. Preparations are washed four times after each response. All doses of drugs are administered in a 0.1 ml volume. Since it has been observed that the magnitude of the second response to carbachol, which is approximately 10% greater than the first, is close to the maximal response of the tissue, such value is taken as a measure of the sensititity of the particular segment. Responses to each concentration of the test compound are expressed in terms of percentage of the second response to carbachol and the ED50 (dose producing a response of 50% that of carbachol) is calculated graphically. Activity is scored according to the following scale: […]

femoral blood flow = assay: Effects on Femoral Blood Flow in the Dog (Test C); assay type: in vivo, dog (mongrel); conditions: anesthetized dog, intraarterial 0.001 to 10 mcg
Protocol: C. Evaluation of the Effects of Prostaglandin Analogs III on the Femoral Blood Flow in the Dog
The peripheral vasodilator or constrictor effects of test compounds were determined in mongrel dogs of either sex, weighing between 10 and 20 kg anesthestized intravenously with 35 mg/kg of sodium pentobarbital. An external iliac artery was dissected immediately above the femoral arch for a length of approximately 5 cm and a previously calibrated, non-connulating electromagnetic flowmeter sensor with a lumen between 2.5 and 3.5 mm was placed snugly around the vessel. Cannulas were placed in a branch of the artery arising distally to the location of the flowmeter sensor for intraarterial drug administrations, in the contralateral femoral artery for systemic blood pressure recordings and in the trachea for artificial respiration with room air. Femoral blood flow and systemic blood pressure were continuously recorded with an electromagnetic flowmeter and pressure transducer, respectively.
After an adequate control period, test compounds were injected intraarterially at one log-spaced doses ranging from 0.001 to 10 mcg., in a volume of 0.5 ml and at 5 to 10 min intervals. Maximum changes in bloodflow, as well as any variations in blood pressure, were tabulated for each dose in absolute values (ml/min and mmHg). The calculations were made taking as control values those existing immediately before administration of each dose. The direction of the observed change (+ for increase and - for decrease) was also noted. The dose changing bloodflow by 100 ml/min (ED100 ml/min) was calculated graphically and was used for scoring activity as follows: […]

blood pressure = assay: Effects on Blood Pressure and Heart Rate in the Anesthetized Cat (Test D); assay type: in vivo; conditions: i.v. 0.01 to 10.0 mcg/kg, scored on hypotension
Protocol: D. Evaluation of the Effects of Prostaglandin Analogs III on Blood Pressure and Heart Rate in the Anesthetized Cat
The acute effects of test compounds on blood pressure and heart rate were determined in cats of either sex anesthetized with a mixture of pentobarbital sodium (35 mg/kg, i.v.) and barbital sodium (100 mg/kg, i.v.). Cannulas were placed in the trachea to allow adequate spontaneous ventilation, in a femoral artery for blood pressure recording with a strain gage transducer, and in a saphenous vein for drug administration. Heart rate was recorded by means of a cardiotachometer driven by the R wave of the electrocardiogram. After a period of 10 min of stable recordings of blood pressure and heart rate, the test compound was administered intravenously at doses increasing from 0.01 to 10.0 mcg/kg, spaced one log and injected at 10 min intervals. All doses were injected in a volume of 0.1 ml/kg. Modifications of blood pressure and heart rate induced by the test compound were expressed both in absolute units (mmHg and beats/min) and as percent of values recorded immediately before administration of each dose. Biphasic responses were tabulated in the order in which they occur. The direction of the observed changes was also noted (+ for increase and - for decrease).
Activity of compounds in this test was judged only on the basis of the degree of hypotension observed. Thus, the ED50 mmHg (dose decreasing blood pressure by 50 mmHg) was calculated graphically and the compound scored according to the following scale: […]

[4] = tested on: blood pressure (hypertensive rat); assay: Effects on Blood Pressure in the Hypertensive Rat (Test E); assay type: in vivo; set-up: key: 0: Not significant at any time interval; 1: Significant at one time interval; 2: Significant at two time intervals; 3: Significant at three time intervals; 4: Significant at all four intervals; conditions: 1 mg/kg intraperitoneal, 2, 4, 6 and 8 hr
Protocol: E. Evaluation of the Effects of Prostaglandin Analogs III on Blood Pressure in the Hypertensive Rat
The acute antihypertensive activity of test compounds is determined in rats made hypertensive by the procedure of Grollman (A. Proc. Soc. Exper. Biol. Med., 57:102, [1944]). Female rats weighing between 60 and 100 g are anesthetized with ether, the right kidney approached through a flank retroperitoneal incision, decapsulated and tied with a figure-of-eight ligature. The animals are left to recover and two weeks later are again anesthetized and the contralateral kidney removed. Four weeks after the second operation the rats are subjected to indirect blood pressure measurements and those showing systolic pressure values greater than 160 mmHg are selected for drug testing.
Blood pressure is measured in the tail with an inflatable occluding cuff placed at the base of the extremity and a pulse detector located distally. The cuff is inflated to approximately 300 mmHg and is slowly deflated until pulsations appear, indicating the level of systolic pressure; diastolic pressure is not recorded by this procedure. All measurements are carried out in unanesthetized, unsedated animals maintained in a warm environment during the recording procedure and for at least 6 hr before. In all cases, three pressure readings are obtained in succession and mean values are calculated thereof.
Experiments are carried out in groups of five hypertensive rats in which systolic pressure is determined immediately before and 2, 4, 6 and 8 hr after the intraperitoneal administration of the test compound at a dose of 1 mg/kg. Drugs are diluted from stock solutions with phosphate buffer (Lee et al., Prostaglandins 3:29 [1973]), so as to inject this quantity in a volume of 1 ml/kg. Changes from control blood pressure values are calculated for each interval both in mmHg and in per-cent, and evaluated for significance by means of Wilcoxon's signed rank test (Wilcoxon and Wilcox, Some rapid approximate statistical procedures, Lederle Laboratories, Pearl River [1964]).

Row | SMILES | Activity value, Test B: Inhibition of a Rodent Gastric Secretion (% decrease in acidity) (gastric secretion) | Activity value, Test F: Effects on Rat Uterus (ED50, response of 50% that of carbachol) (rat uterus) | also measured
1 | CCCCC[C@H](O)/C=C/[C@H]1[C@H](O)CC(=O)[C@@H]1CCCCCCC(=O)O [PGE1] |  |  | inhibition of platelet aggregation, natural prostaglandins, in words [1]: displays a similar activity; contraction of the vas deferens [2]: contracts the smooth muscle of the vas deferens
2 | CCCCC[C@H](O)/C=C/[C@@H]1[C@@H](C/C=C\CCCC(=O)O)[C@@H](O)C[C@H]1O [PGF2] |  |  | effects on uterus, fertility, gestation and labor [3]: exerts potent oxytocic effects in inducing labor
3 | CCCCC[C@H](O)/C=C/[C@@H]1[C@@H](C/C=C\CCCC(=O)O)[C@@H](O)C[C@H]1O [PGF2α] |  |  | effects on uterus, fertility, gestation and labor [3]: has contragestational effects; also recorded: induces spontaneous abortions in early pregnancy
4 | CCC1CC(C(/C=C/C2C=CC(=O)C2CCCCCCC(=O)OC)OC(C)=O)C1 (centres unmarked) [TR-4281, Methyl 15RS-acetoxy-16,18-methano-9-oxoprosta-10,13E-dien-1-oate] | 0 (<26) | 0 (>10) | 
5 | CCC1CC([C@H](O)/C=C/C2C(O)CC(O)C2CCCCCCC(=O)OC)C1 (stereo partly drawn) [TR-4624, Methyl 16,18-methano-9α,1α,15S-trihydroxyprost-13E-en-1-oate] | 0 (<26) | 0 (>10) | Activity value, Test C: Increase in Canidae Femoral Blood Flow (ED100 ml/min) (femoral blood flow): 0 (>10.0); Activity value, Test D: Increase in Normal Feline Blood Pressure and Heart Rate (ED50 mmHg) (blood pressure): 0 (>10.1); Activity value, Test E: Effects on Blood Pressure in Hypertensive Rat (blood pressure decrease) [4]: 0
6 | CCC1CC([C@H](O)/C=C/C2C(O)CC(O)C2CCCCCCC(=O)OC)C1 (stereo partly drawn) [TR-4625, Methyl 16,18-methano-9β,11α,15S-trihydroxyprost-13E-en-1-oate] | 0 (<26) | 0 (>10) | Activity value, Test C: Increase in Canidae Femoral Blood Flow (ED100 ml/min) (femoral blood flow): 0 (>10.0); Activity value, Test D: Increase in Normal Feline Blood Pressure and Heart Rate (ED50 mmHg) (blood pressure): 0 (>10.1); Activity value, Test E: Effects on Blood Pressure in Hypertensive Rat (blood pressure decrease) [4]: 0
7 | CCC1CC([C@H](O)/C=C/C2C(O)CC(O)C2CCCCCCCO)C1 (stereo partly drawn) [TR-4627, 16,18-Methanoprost-13E-en-1,9β,11α,15S-tetraol] | 0 (<26) | 0 (>10) | 
8 | CCC1CC(C)([C@@H](O)/C=C/C2C=CC(=O)C2CCCCCCC(=O)OC)C1 (stereo partly drawn) [TR-4695, Methyl 15S-hydroxy-16,18-methano-16-methyl-9-oxoprosta-10,13E-dien-1-oate] | 0 (<26) | 0 (>10) | 
